How the values were obtained:
[1] = xn = mol fraction of the nth substance listed; settings: for surface tension liquid-gas: Ring tensiometer; for viscosity / speed of sound / mass density: 101 kPa, Liquid; for viscosity: Capillary tube (Ostwald / Ubbelohde) method; for speed of sound: Sing-around technique in a fixed-path interferometer; for mass density: Vibrating tube method
[2] = refractive index (Na D-line) (dimensionless); xn = mol fraction of the nth substance listed; settings: 101 kPa, Liquid, Standard Abbe refractometry

CC(O)CNCC(C)O (stereo not given) [N-(2-hydroxypropyl)-2-hydroxy-1-propanamine] + CN1CCCC1=O
Settings | mass density, [1] [kg/m3] | refractive index, [2] | speed of sound, [1] [m/s] | surface tension liquid-gas, [1] [mN/m] | viscosity, [1] [mPa·s]
293.15 K, x2 = 0.7804 | 1021.9 | 1.4675 | 1535.6 | 39.7 | 4.857
293.15 K, x2 = 0.8882 | 1026.8 | 1.4682 | 1548.8 | 41.3 | 2.943
303.15 K, x2 = 0.4695 | 1006 | 1.4608 | 1483.8 | 37.1 | 20.25
303.15 K, x2 = 0.5721 | 1007.3 | 1.4616 | 1486.6 | 37.6 | 10.57
303.15 K, x2 = 0.6754 | 1010.8 | 1.4623 | 1494.7 | 38.3 | 6.229
303.15 K, x2 = 0.7804 | 1013.4 | 1.4635 | 1499.4 | 39 | 3.694
303.15 K, x2 = 0.8882 | 1018.2 | 1.4648 | 1511.9 | 40 | 2.371
313.15 K, x2 = 0.2764 | 993.1 | 1.4558 | 1443.5 | 36 | 38.27
313.15 K, x2 = 0.3733 | 994.5 | 1.4563 | 1445 | 36.2 | 21.14
313.15 K, x2 = 0.4695 | 997.8 | 1.4567 | 1450.8 | 36.7 | 11.24
313.15 K, x2 = 0.5721 | 998.9 | 1.4576 | 1453.3 | 37.2 | 7.051
313.15 K, x2 = 0.6754 | 1002.3 | 1.4582 | 1460.3 | 37.9 | 4.495
313.15 K, x2 = 0.7804 | 1004.8 | 1.4594 | 1463.7 | 38.5 | 2.89
313.15 K, x2 = 0.8882 | 1009.4 | 1.4607 | 1474.9 | 39.5 | 1.943
323.15 K, x2 = 0 | 984.1 | 1.4512 | 1420.3 | 34.5 | 125.73
323.15 K, x2 = 0.1049 | 984 | 1.451 | 1414.2 | 34.9 | 61.14
323.15 K, x2 = 0.1898 | 984.4 | 1.4511 | 1411.8 | 35.1 | 35.41
323.15 K, x2 = 0.2764 | 985.1 | 1.452 | 1412.2 | 35.1 | 20.93
323.15 K, x2 = 0.3733 | 986.4 | 1.4524 | 1413 | 35.3 | 12.67
323.15 K, x2 = 0.4695 | 988.2 | 1.4528 | 1415.4 | 36 | 7.412
323.15 K, x2 = 0.5721 | 990.6 | 1.4535 | 1419.6 | 36.5 | 5.022
323.15 K, x2 = 0.6754 | 993.5 | 1.4541 | 1424.3 | 37.1 | 3.42
323.15 K, x2 = 0.7804 | 996.8 | 1.4553 | 1428.6 | 37.7 | 2.33
323.15 K, x2 = 0.8882 | 1000.7 | 1.4565 | 1438.7 | 38.7 | 1.631

Reference: the NIST ThermoML archive (doi:10.1021/je200121f)
